Laboratory results taken from patent publication US20120065198A2, “Detection and Treatment of Schizophrenia” (Tokai University Educational System, priority 2007, published 2012).

Assays:
[1] = system: pentosidine formation; test: Inhibitory effects of phenylene derivatives (II) on AGEs (pentosidine) formation; assay type: biochemical; parameters: AGE Formation Inhibition Ratio (%): concentration or dose not given beside the values; details: same method used in Test Example 1
Protocol: (§1) Plasma was collected from hemodialysis patients prior to dialysis with the patients' consent, and the plasma was filtered and sterilized. To the plasma (450 μL) was added solutions of TM-2002 in dimethylsulfoxide (50 μL) (final concentrations: 0.8, 2.0, and 5.0 mM), and the mixtures were incubated for 1 week at 37° C. The levels of the pentosidine formation were measured.
Pentosidine was measured as follows. To each sample (50 μL) after incubation was added an equal volume of 10% trichloroacetic acid, and the mixture was subsequently centrifuged at 5,000 g for 5 minutes. After the supernatant was removed, the pellet was washed with 5% trichloroacetic acid (300 μL). The pellet was dried under reduced pressure, and subsequently hydrolyzed in a 6N HCl solution (100 μL) under a nitrogen atmosphere for 16 hours at 110° C. To the acid hydrolysate was then added 5N NaOH (100 μL) and 0.5 M phosphate buffer (pH 7.4) (200 μL); the mixture was subsequently filtered through a micropore filter with 0.5 μm pores and diluted with PBS. The concentration of the released pentosidine was measured by reverse-phase HPLC using a fluorescence detector (RF-10A, Shimadzu Corporation) (Miyata, T. et al.; Proc. Natl. Acad. Sci. USA, Vol. 93, p. 2353-2358, 1996). The effluent was monitored at the excitation/emission wavelength of 335/385 nm. Synthetic pentosidine was used as the reference material. The detection limit of pentosidine was 0.1 pmol/mg protein. […]

[2] = system: pentosidine formation; test: Inhibitory activity on pentosidine formation, samples incubated with BSA and arabinose; assay type: biochemical; details: incubated with BSA and arabinose instead of patient plasma; for Pentosidine Formation Ratio (%) at 5 Concentration: Table 13
Protocol: as §1
Pentosidine was measured as follows. To each sample (50 μL) after incubation was added an equal volume of 10% trichloroacetic acid, and the mixture was subsequently centrifuged at 5,000 g for 5 minutes. After the supernatant was removed, the pellet was washed with 5% trichloroacetic acid (300 μL). The pellet was dried under reduced pressure, and subsequently hydrolyzed in a 6N HCl solution (100 μL) under a nitrogen atmosphere for 16 hours at 110° C. To the acid hydrolysate was then added 5N NaOH (100 μL) and 0.5 M phosphate buffer (pH 7.4) (200 μL); the mixture was subsequently filtered through a micropore filter with 0.5 μm pores and diluted with PBS. The concentration of the released pentosidine was measured by reverse-phase HPLC using a fluorescence detector (RF-10A, Shimadzu Corporation) (Miyata, T. et al.; Proc. Natl. Acad. Sci. USA, Vol. 93, p. 2353-2358, 1996). The effluent was monitored at the excitation/emission wavelength of 335/385 nm. Synthetic pentosidine was used as the reference material. The detection limit of pentosidine was 0.1 pmol/mg protein.
(2) Other edaravone analogues (Compounds (1) or (2)) were investigated for their inhibitory activities on pentosidine formation in the same manner as in Section (1) above, except that the samples were incubated with BSA and arabinose instead of the patient plasma. In the tables, “-” means that the test was not conducted.

Structure (SMILES)	AGE Formation Inhibition Ratio (%) [1] [%]	Pentosidine Formation Ratio (%) [1] [%]	Pentosidine Formation Ratio (%) at 5 Concentration [2] [%]	Pentosidine Formation Ratio (%) at 5 mM Drug Concentration [2] [%]
Cc1ccc(S(=O)(=O)N(Cc2ccc(C3SC(=O)NC3=O)cc2)c2cccc(C(=O)O)c2)cc1 (stereo not shown) [(II-23)]	90	10		
O=C1NC(=O)C(c2ccc(CN(C(=O)C3CCCCC3)c3cccc(C(=O)O)c3)cc2)S1 (stereo not shown) [(II-18)]	85	15		
CCCCS(=O)(=O)N(Cc1ccc(C2SC(=O)NC2=O)cc1)c1cccc(C(=O)O)c1 (stereo not shown) [(II-11)]	89	11		
CC1=NN(c2cccc(Cl)c2)C(=O)/C1=C/c1ccc(O)cc1 [compound 71, 2-(3-chloro-phenyl)-4-(4-hydroxy-benzylidene)-5-methyl-2,4-dihydropyrazol-3-one]			4.63	
O=C1NC(=O)C(c2ccc(CN(C(=O)CCc3ccccc3)c3cccc(C(=O)O)c3)cc2)S1 (stereo not shown) [(II-20)]	92	8		
CC1=NN(c2cccc(C(F)(F)F)c2)C(=O)/C1=C/C=C/c1ccccc1 [compound 33]				80.08
O=C1NC(=O)C(c2ccc(CN(C(=O)c3cccnc3)c3cccc(C(=O)O)c3)cc2)S1 (stereo not shown) [(II-19)]	80	20		
O=C(NC1=NN(c2ccccc2)C(=O)C1(O)S(=O)(=O)[O-])c1ccccc1.[Na+] (stereo not shown) [compound 27, Sodium 3-benzoylamino-4-hydroxy-5-oxo-1-phenyl-4,5-dihydro-1H-pyrazole-4-sulfonate]				2.83
CC1=NN(c2ccccc2)C(=O)C12C(c1ccccc1)C21C(=O)N(c2ccccc2)N=C1C (stereo not shown) [compound 30, 4,10-dimethyl-2,8,11-triphenyl-2,3,8,9-tetraza-dispiro[4.0.4.1]undeca-3,9-diene-1,7-dione]				62.43
CCOC(=O)C1=NN(c2ccccc2)/C(=C2\C(=O)N(c3ccccc3)N=C2c2ccccc2)S1 [compound 74]			87.24	
CC1(C)Cc2ccc(C(=O)O)cc2N(Cc2ccc(C3SC(=O)NC3=O)cc2)C1=O (stereo not shown) [(II-29)]	86	14		
CC1=NN(c2ccccc2)C(=O)C12Sc1ccccc1C2=O (stereo not shown) [compound 28]				22.83
CC1=NN(c2ccccc2Cl)C(=O)/C1=C/c1ccc(O)c(OCO)c1 [compound 31]				15.57
O=C1NC(=O)C(c2ccc(CN(Cc3ccc(-c4ccccc4)cc3)c3cccc(C(=O)O)c3)cc2)S1 (stereo not shown) [(II-68)]	80	20		
CC1=NN(c2ccc(Cl)cc2)C(=O)/C1=C/c1ccc(O)cc1O [compound 42, 2-(4-chloro-phenyl)-4-(2,4-dihydroxy-benzylidene)-5-methyl-2,4-dihydro-pyrazol-3-one]				68.32
CC1=NN(c2ccc(S(N)(=O)=O)cc2)C(=O)/C1=C/c1ccc(O)cc1 [compound 49, 4-[4-(4-hydroxy-benzylidene)-3-methyl-5-oxo-4,5-dihydro-pyrazol-1-yl]-benzenesulfonamide]				7.09
CC1=NN(c2ccc(C)cc2)C(=O)/C1=C/c1ccc(O)c(O)c1 [compound 44, 4-(3,4-dihydroxy-benzylidene)-5-methyl-2-p-toluyl-2,4-dihydro-pyrazol-3-one]				66.19
CS(=O)(=O)N(Cc1ccc(C2SC(=O)NC2=O)cc1)c1ccccc1 (stereo not shown) [(II-8)]	81	19		
CC1CCc2ccc(C(=O)O)cc2N1Cc1ccc(C2SC(=O)NC2=O)cc1 (stereo not shown) [(II-7)]	87	13		
CC1=NN(c2ccccc2)C(=O)/C1=C/c1ccc(O)cc1 [compound 70, 4-(4-hydroxy-benzylidene)-5-methyl-2-phenyl-2,4-dihydro-pyrazol-3-one]			0.04	
COC(=O)c1ccc(N2N=C(C)/C(=C/c3ccc4c(c3)OCO4)C2=O)cc1 [compound 40, 4-(4-benzo[1,3]dioxol-5-ylmethylene-3-methyl-5-oxo-4,5-dihydro-pyrazol-1-yl)-benzoic acid methyl ester]				32.37

Structure (SMILES)	AGE Formation Inhibition Ratio (%) [1] [%]	Pentosidine Formation Ratio (%) [1] [%]	Pentosidine Formation Ratio (%) at 5 Concentration [2] [%]	Pentosidine Formation Ratio (%) at 5 mM Drug Concentration [2] [%]
O=C1NC(=O)C(c2ccc(CN(c3cccc(C(=O)O)c3)S(=O)(=O)c3ccccc3)cc2)S1 (stereo not shown) [(II-22)]	85	15		
O=C1NC(=O)C(c2ccc(Cn3ccnc3-c3ccccc3)cc2)S1 (stereo not shown) [(II-16)]	85	15		
O=C(O)c1cccc(N(Cc2ccc(-c3ccccc3-c3nnn[nH]3)cc2)C(=O)CCc2ccccc2)c1 [(II-1)]	80	20		
O=C(O)c1cccc(N(CC(=O)c2ccccc2)Cc2ccc(-c3ccccc3-c3nnn[nH]3)cc2)c1 [(II-42)]	93	7		
COc1ccc(/C=C2/C(=O)N(c3ccccc3)N=C2C)c(OC)c1O [compound 59, 4-(3-hydroxy-2,4-dimethoxy-benzylidene)-5-methyl-2-phenyl-2,4-dihydro-pyrazol-3-one]				5.3
Cc1ncc2c(c1O)C(c1c(C)nn(-c3ccccc3)c1O)OC2 (stereo not shown) [compound 68]				2.82
O=C(O)c1cccc(N(CCc2ccccc2)Cc2ccc(-c3ccccc3-c3nnn[nH]3)cc2)c1 [(II-32)]	81	19		
O=C1/C(=C\c2ccc(O)cc2)C(C(F)(F)F)=NN1c1ccccc1 [compound 53, 4-(4-hydroxy-benzylidene)-2-phenyl-5-trifluoromethyl-2,4-dihydro-pyrazol-3-one]				66.76
CS(=O)(=O)N(Cc1ccc(C2SC(=O)NC2=O)cc1)c1cccc(C(=O)O)c1 (stereo not shown) [(II-10)]	86	14		
O=C1NC(=O)C(c2ccc(CN(c3cccc(C(=O)O)c3)S(=O)(=O)c3ccc4ccccc4c3)cc2)S1 (stereo not shown) [(II-25)]	99	1		
O=C1NC(=O)C(c2ccc(CN(c3cccc(C(=O)O)c3)S(=O)(=O)c3ccc(-c4ccccc4)cc3)cc2)S1 (stereo not shown) [(II-24)]	91	9		
CCCCCN(Cc1ccc(C2SC(=O)NC2=O)cc1)c1cccc(C(=O)O)c1 (stereo not shown) [(II-6)]	80	20		
CCCC1CCc2ccc(C(=O)O)cc2N(Cc2ccc(C3SC(=O)NC3=O)cc2)C1=O (stereo not shown) [(II-28)]	84	16		
CCCCS(=O)(=O)N(Cc1ccc(C2SC(=O)NC2=O)cc1)c1ccccc1 (stereo not shown) [(II-9)]	80	20		
Cc1nc(-c2ccc(S(=O)(=O)N(Cc3ccc(C4SC(=O)NC4=O)cc3)c3cccc(C(=O)O)c3)cc2)cs1 (stereo not shown) [(II-63)]	80	20		
Cc1oc(-c2ccccc2)nc1CC(=O)N(Cc1ccc(C2SC(=O)NC2=O)cc1)c1cccc(C(=O)O)c1 (stereo not shown) [(II-33)]	82	18		
O=C1NC(=O)C(c2ccc(CN(C(=O)c3ccc(-c4ccccc4)cc3)c3cccc(C(=O)O)c3)cc2)S1 (stereo not shown) [(II-21)]	98	2		
CCCc1cc2ccc(C(=O)O)cc2n(Cc2ccc(C3SC(=O)NC3=O)cc2)c1=O (stereo not shown) [(II-17)]	84	16		
O=C1NC(=O)C(c2ccc(Cn3c(-c4ccccn4)nc4ccccc43)cc2)S1 (stereo not shown) [(II-15)]	80	20		
O=C1NC(=O)C(c2ccc(CN3C(=O)C4(CC4)Cc4ccc(C(=O)O)cc43)cc2)S1 (stereo not shown) [(II-30)]	87	13		
